Laboratory results as given in ChEMBL document CHEMBL4680276, “Structure-Activity Relationships of Daptomycin Lipopeptides” (2020).
Converted amounts (≈) assume the structure as drawn.

Key:
Type in all cases: functional
Bacillus subtilis [1] = assay: Antibacterial activity against Bacillus subtilis PY79 incubated for 18 hrs in presence of 73.6 mg/L Ca2+ by visual method
Bacillus subtilis [2] = assay: Antibacterial activity against Bacillus subtilis ATCC1046 in presence of 1.25 mM Ca2+ by serial dilution method; conditions: time 18 hrs
[3] = Antibacterial activity against Streptomyces sp. WAC4713 measured up to 55 hrs; conditions: Streptomyces sp. WAC4713, 55 h; time hrs <=55
Staphylococcus aureus = assay: Antibacterial activity against Staphylococcus aureus ATCC 29213 incubated for 12 hrs in presence of 1.25 mM Ca2+ by broth microdilution method

Row | Structure (SMILES) | MIC90 (Bacillus subtilis [1]) [µg/mL] | other results
1 | CCCCCCCCCC(=O)N[C@@H](Cc1c[nH]c2ccccc12)C(=O)N[C@H](CC(=O)O)C(=O)N[C@@H](CC(N)=O)C(=O)N[C@@H]1C(=O)N(C)CC(=O)N[C@@H](C)C(=O)N[C@@H](CC(=O)O)C(=O)N[C@H](C)C(=O)N[C@@H](CC(=O)O)C(=O)NCC(=O)N[C@H](CO)C(=O)N[C@@H](CCC(=O)O)C(=O)N[C@@H](CC(=O)c2ccccc2N)C(=O)O[C@@H]1C | 20 | –
2 | CCCCCCCCCC(=O)N[C@@H](Cc1c[nH]c2ccccc12)C(=O)N[C@@H](CC(N)=O)C(=O)N[C@@H](CC(=O)O)C(=O)N[C@@H]1C(=O)NCC(=O)N[C@@H](CCCN)C(=O)N[C@@H](CC(=O)O)C(=O)N[C@H](C)C(=O)N[C@@H](CC(=O)O)C(=O)NCC(=O)N[C@H](CO)C(=O)N[C@H](CCC(=O)O)C(=O)N[C@@H](CC(=O)c2ccccc2N)C(=O)O[C@@H]1C | 11 | –
3 | CCCCCCCCCC(=O)N[C@@H](Cc1c[nH]c2ccccc12)C(=O)N[C@H](CC(N)=O)C(=O)N[C@@H](CC(N)=O)C(=O)N[C@@H]1C(=O)NCC(=O)N[C@@H](CCCCN)C(=O)N[C@@H](CC(=O)O)C(=O)N[C@H](C)C(=O)N[C@@H](CC(=O)O)C(=O)NCC(=O)N[C@H](CO)C(=O)N[C@@H](CCC(=O)O)C(=O)N[C@@H](Cc2c[nH]c3ccccc23)C(=O)O[C@@H]1C | – | MIC (Bacillus subtilis [2]): 1.5 µg/mL
4 | CCCCCCCCCC(=O)N[C@@H](Cc1c[nH]c2ccccc12)C(=O)N[C@H](CC(=O)O)C(=O)N[C@@H](CC(N)=O)C(=O)N[C@@H]1C(=O)N(C)CC(=O)N[C@@H](CCCN)C(=O)N[C@@H](CC(=O)O)C(=O)N[C@H](C)C(=O)N[C@@H](CC(=O)O)C(=O)NCC(=O)N[C@H](CO)C(=O)N[C@@H](CCC(=O)O)C(=O)N[C@@H](CC(=O)c2ccccc2N)C(=O)O[C@@H]1C | 20 | –
5 | CCCCCCCCCC(=O)N[C@@H](Cc1c[nH]c2ccccc12)C(=O)N[C@H](CCC(=O)O)C(=O)N[C@@H](CC(N)=O)C(=O)N[C@H]1COC(=O)[C@H]([C@@H](C)CC)NC(=O)[C@H](CCC(=O)O)NC(=O)[C@@H](CC(N)=O)NC(=O)CNC(=O)[C@H](CC(=O)O)NC(=O)[C@@H](CCCCN)NC(=O)[C@H](CC(=O)O)NC(=O)[C@H](C)NC(=O)CN(C)C1=O | 25 | –
6 | CCCCCCCCCC(=O)N[C@@H](Cc1c[nH]c2ccccc12)C(=O)N[C@H](CC(N)=O)C(=O)N[C@@H](CC(=O)O)C(=O)N[C@@H]1C(=O)NCC(=O)N[C@@H](CCCN)C(=O)N[C@@H](CC(=O)O)C(=O)N[C@H](C)C(=O)N[C@@H](CC(=O)O)C(=O)NCC(=O)N[C@H](CO)C(=O)N[C@@H]([C@H](C)CC(=O)O)C(=O)N[C@@H](CC(=O)c2ccccc2N)C(=O)O[C@@H]1C | 2 | MIC [3]: 512 µg/mL (≈ 316 µM)
7 | CCCCCCCCCC(=O)N[C@@H](Cc1c[nH]c2ccccc12)C(=O)N[C@H](CCC(=O)O)C(=O)N[C@@H](CC(N)=O)C(=O)N[C@@H]1C(=O)N(C)CC(=O)N[C@@H](C)C(=O)N[C@@H](CC(=O)O)C(=O)N[C@H](CCCCN)C(=O)N[C@@H](CC(=O)O)C(=O)NCC(=O)N[C@H](CC(N)=O)C(=O)N[C@@H](CCC(=O)O)C(=O)N[C@@H]([C@@H](C)CC)C(=O)O[C@@H]1C | 25 | –
8 | CCCCCCCCCC(=O)N[C@@H](Cc1c[nH]c2ccccc12)C(=O)N[C@H](CC(N)=O)C(=O)N[C@@H](CC(=O)O)C(=O)N[C@@H]1C(=O)NCC(=O)N[C@@H](CCCCN)C(=O)N[C@@H](CC(=O)O)C(=O)N[C@H](C)C(=O)N[C@@H](CC(=O)O)C(=O)NCC(=O)N[C@H](CO)C(=O)N[C@@H](CCC(=O)O)C(=O)N[C@@H](CC(=O)c2ccccc2N)C(=O)O[C@@H]1C | – | MIC (Staphylococcus aureus): 64 µg/mL
